We go through 4 molecules from patent publication US11179436B2, “Methods and compositions comprising a C-terminal Bax peptide” (University of Central Florida Research Foundation, Inc., priority 2011, dated 2021).

The nature of data set [1]: Calcein release from calcein-loaded large unilamellar vesicles. Format: biochemical. The conditions noted are these: for maximal release of calcein upon treatment with detergent: Triton X-100 after peptide; for maximal release of calcein upon treatment with detergent / release of calcein from mitochondrial-like lipid vesicles: FIG. 1C; for release of calcein from mitochondrial-like lipid vesicles: free peptide. As to the method:
Calcein release from artificial membranes was measured on a JASCO 810 spectropolarimeter (Jasco Inc.) with a Peltier water cooled thermostat and a photomultiplier tube mounted at 90 degrees for fluorescence measurements. Large unilamellar vesicles (LUVs) were prepared with the following modifications: Lipids (Avanti Polar Lipids) in chloroform were mixed in the following molar ratios: 52.5% 1-palmitoyl-2-oleyl-sn-glycero-3-phosphatidylcholine (POPC), 21% 1-palmitoyl-2-oleyl-sn-glycero-3-phosphatidylethanolamine (POPE), 13% bovine liver L-α phosphatidylinositol (PI), 10% cholesterol and 3.5% 1-palmitoyl-2-oleyl-sn-glycero-3-phosphatidylglycerol (POPG). These rations mimicked the outer mitochondrial membrane. After removing chloroform and desiccating, the dried lipid film was resuspended in 50 mM HEPES, pH 7, supplemented with 110 mM NaCl and 80 mM calcein and extruded with Avanti's mini extruder (Alabaster, Ala.). External calcein was removed by gel filtration through a 1.5×50 cm Econo-Column (Bio-Rad) freshly packed with Sephadex 50 (GE Healthcare). CT20 Bax peptides were added at concentrations equivalent to those used with cells in culture. Calcein fluorescence was excited at 495 nm and emission spectra recorded between 510 and 550 nm (excitation/ emission slits: 10/3 nm). Samples were maintained at 37° C. and a final measurement taken at 24 hours. Maximum calcein release was obtained by the addition of Triton ×100 (0.1% final concentration) to calcein loaded LUVs without nanoparticles that had had been incubated at 37° C. for 24 hours after the addition of 10 μL DMSO.
Using a commercially synthesized peptide composed of the last twenty amino acids ([…]) of the C-terminus of Bax (CT20), the ability of CT20p peptideto insert and permeabilize lipid membranes was examined. Liposomes contained phospholipids that composed the mitochondrial outer membrane and were loaded with calcein. […] In FIG. 1C, the red lines indicate maximal release of calcein with Triton X-100. The blue lines indicate treatment with DMSO and the green lines (except for control) indicate treatment with CT20 Bax peptides.
To determine whether the CT20p peptide could directly kill cancer cells, the CT20 wild type peptide was encapsulated in polymeric nanoparticles. As the CT20p peptide is amphipathic, it can be encapsulated within the hydrophobic pockets of aliphatic polymeric nanoparticles. […] To verify that the nanoparticles would not release the CT20 peptide at neutral pH, calcein loaded liposomes were prepared.
In FIG. 9, a calcein release assay was performed with calcein loaded lipid vesicles prepared with the composition of the mitochondrial membrane. Calcein release was measured as fluorescence. Controls were calcein release achieved with CT20p peptide alone and maximum calcein release obtained upon addition of Triton x100. A representative experiment of two independent experiments is shown. This confirmed that cargo is released from nanoparticles only by intracellular esterases or acidic pH (Santra et al., 2010).

The nature of data set [2]: Pore formation in zwitterionic and anionic membranes, kinetics of calcein release and structural studies. Format: biochemical. The conditions noted are these: calcein transport. The text has this:
An analysis of formation of relatively large membrane pores by Bax C-terminal 20-reside peptide (CT20p) and two mutants where the two native lysines are replaced either with glutamates (charge reversal mutation) or leucines (charge neutralization mutation) were examined. […] The kinetics of calcein release at various concentrations of the three peptides allowed identification of the second-order rate constants of pore formation within the membrane, the affinity constants of peptide units composing the pore, and the oligomeric pore structure. Nucleation of the pore is shown to be relatively slow and involve 2-3 peptide molecules, followed by a faster process of assembly of the pore that includes up to eight peptide molecules. Structural studies led to a model of an octameric transmembrane pore with an inner diameter of 20-22 A. Analysis of the kinetics of calcein release from lipid vesicles allows determination of rate constants of pore formation, peptide-peptide affinities within the membrane, the oligomeric state of transmembrane pores, and the role of the lysine residues. […]
Additionally, the pore structure was analyzed by polarized Fourier transform infrared, circular dichroism, and fluorescence experiments on the peptides reconstituted in phospholipid membranes. […]

Data set [3] deals with wild type E. coli. Kind of data set: E. coli growth in broth by optical density. Format: cell-based. Conditions: FIG. 14. As to the method: Attributes are shared among the peptides. […] The E. coli were grown in the presence of a peptide, concentrations of CT20p peptide or for control, SCR peptide, or no peptide for a control, in standard conditions for growing bacteria in broth media.

Data set [4] concerns MDA-MB-231 cells. Kind of data set: Cell death by CT20 peptide/nanoparticles and/or CDDP, with Z-VAD-fmk or Bcl-2 overexpression. The conditions noted are these: FIG. 6A; for effect of caspase inhibition with Z-VAD-FMK on cell death: 100 μM Z-VAD-fmk pre-treatment; for cell death / loss of membrane integrity: CT20 peptide/nanoparticles 350 pM; for effect of Bcl-2 overexpression on cell death: transient Bcl-2 transfection. Format: cell-based. As to the method: MDA-MB-231 cells were transiently transfected with pcDNA-Bcl2 (or as control pEGFP (Clontech)) using the TransIT-LT1 transfection reagent (Minis). To assess transfection efficiency, cells were assayed microscopically for EGFP expression. To assess Bcl-2 expression, cells lysates were immunoblotted.
Visualization of the uptake and effects of the fluorescent dye (DiI)-loaded nanoparticles in HCT-116, MCF-7, and MDA-MD-231 cells was observed using a 10× air objective with a numerical aperture of 0.3, using ex/em of 514/587. All cells were loaded with MitoTracker. Visualization of the HCT-116 cell lines was observed using Plan-Apochromat 63× Oil objective. MCF-7 and MDA-MB-231 images were captured using Plan-Apochromat 40× Oil objective. All time-lapse images were generated in 2D by capturing 6 time points per hour for 24 hours of the same field.
(§1) HCT-116, MCF-7, or MDA-MB-231 cells were collected at a final concentration of 1×10^6 cells/mL and assayed using the SYTOX® AADvanced™ dead cell stain solution (Invitrogen). Cells were analyzed using the BD FACSCanto flow cytometer. SYTOX® AADvanced™ was visualized at 488 nm and emissions collected at 695 nm. Analysis of data was done using FSC Express software (DeNovo). Membrane asymmetry was assessed using the Violet Ratiometric Membrane Asymmetry Probe/Dead Cell Apoptosis Kit (Invitrogen) according to the manufacturer's protocol.
(§2) To evaluate apoptosis, cells were pre-treated with 100 μM of the pan-caspase inhibitor Z-VAD-fmk (EMD Biosciences) or transiently transfected with Bcl-2, then treated with either CT20/nanoparticles or cisplatin (CDDP) alone or in combination as indicated in figure legends. Following treatment, cells were analyzed for cell death and membrane asymmetry.
Whether the CT20 peptide was able to kill the breast cancer cells, MCF-7 and MDA-MB-231, was examined. […] For each sample, three different fields of view were acquired. Images are representative “snapshots” of three independent experiments Most MCF-7 cells died within 24 hours, while loss of membrane integrity was detected by 3 hours of treatment (FIG. 5B). […] Within three hours, increased membrane rupture was detected in MDA-MB-231 cells treated with COOH-nanoparticles loaded with CT20 peptide (FIG. 5D).
To investigate the mechanism by which the CT20p peptide was inducing cell death, MDA-MB-231 cells were treated with CT20 Bax peptide/nanoparticles (350 pM). A caspase inhibitor (e.g., ZVAD-Fmk and/or CDDP) was added or Bcl-2 was overexpressed. […] The expression of Bcl-2 by transfected cells was confirmed by immunoblotting lysates prepared from cells (FIG. 10).

Data set [5] concerns MDA-MB-231 cells implanted in the flanks of nude mice. Nature of the data set: Murine tumor experiment, intratumoral injection, tumor volume by ultrasound. Format: in vivo. The conditions noted are these: for tumor growth / change in tumor volume: intratumoral injections over a 4-5 day period, versus empty nanoparticles or PBS. Here is the method: One to two million MBA-MD-231 cells were harvested from culture and injected subcutaneously into the right and left flanks of 16 female nude mice (nu/nu, Charles River). After 2-3 weeks, tumor volume and growth was assessed by ultrasound (VisualSonics Vevo 2100). Mice with tumors were injected intratumorally with PBS, unloaded polymeric nanoparticles, or CT20 Bax peptide-loaded polymeric nanoparticles at 4× the concentrations described above. Injections were performed twice over a 4-5 day period. Mice were observed 0-5 days post-treatments and tumor volume assessed by ultrasound.
MDA-MB-231 cells were implanted in the flanks of nude mice. Initial growth of tumors was detected after 2 weeks. At this time tumors were measured, and over a 4-5 day period, the mice were treated with intratumoral injections of PBS, unloaded or empty nanoparticles (NP), or CT20 peptide/nanoparticles.
FIG. 6D provides representative ultrasound image of changes in tumor volume induced by treatment on days 0, 2 and 4 with the unloaded or CT20 peptide loaded nanoparticles. These findings indicate reduced uptake or effectiveness in non-cancerous cells.

Data set [6] relates to wild type E. coli. Kind of data set: E. coli colony formation after treatment. The conditions noted are these: FIG. 15. Format: cell-based. As to the method: This was determined by plating the E. coli after treatment then counting the resulting colonies after 24 hour incubation. […] The bacterial culture media was plated after 24 hours of treatment/exposure to Ct20p or the control conditions, a peptide (SCR) or no peptide and addition of DMSO, and the resulting colonies were counted. […] A conclusion was that the inhibition of growth seen in FIG. 14 was due to the killing or lysing of bacteria.

Data set [7] relates to MDA-MB-231 cells. Nature of the data set: Membrane asymmetry with violet ratiometric probe. Format: cell-based. The conditions noted are these: FIG. 6B. As to the method:
as §1, §2
Therefore, to determine whether the CT20p peptide induced apoptotic cell death, the amount of membrane asymmetry caused by flipping of phospholipids phospholipids in the plasma membrane using a violet ratiometric probe was determined. In FIG. 6B, dot blots show the comparison of loss of membrane integrity to changes in membrane symmetry in MDA-MB-231 cells treated with CT20p peptide and/or CDDP. […] This was minimally affected by caspase inhibition or Bcl-2 expression. […]

As for VTIFVAGVLTASLTIWEEMG [CT20-EE], in data set [1], the “maximal release of calcein upon treatment with detergent” value was “did not occur” and the “release of calcein from mitochondrial-like lipid vesicles” value was “did not cause calcein release”.
For the molecule VTIFVAGVLTASLTIWLLMG [CT20-LL], in data set [1], the “maximal release of calcein upon treatment with detergent” value is on record as “impaired the maximal release of calcein” and the “release of calcein from mitochondrial-like lipid vesicles” value is reported as “did not cause calcein release”.
For VTIFVAGVLTASLTIWKKMG [CT20p peptide], the “pore formation in lipid membranes” value in data set [2] is given as “efficient at forming pores”. Besides, the “pore formation in lipid membranes” value in data set [2] (listed as wild-type peptide) is “most efficient pores”. Moreover, in the data set with wild type E. coli [3], the “time at which the growth curve reached a plateau” value was 13 h. In addition, in the data set with MDA-MB-231 cells [4], the “effect of caspase inhibition with Z-VAD-FMK on cell death” value is given as “largely unaffected”, the “cell death / loss of membrane integrity” value is recorded as “caused significant loss of membrane integrity” and the “effect of Bcl-2 overexpression on cell death” value is “did not impair the death activity”. Moreover, the “tumor growth / change in tumor volume” value in data set [5] is recorded as “tumor regression”. For the same molecule, in data set [5] (listed as CT20 peptide), the “tumor growth / change in tumor volume” value is “prevented tumor growth”. The “damage of normal tissue surrounding the tumors” value in data set [5] (ultrasound, FIG. 6D) is “little to no observable damage of normal tissue”. The “nature of effect from colony counts” value in the data set on wild type E. coli [6] (24 hours of treatment) is “bactericidal”. Also, the “minimum inhibitory concentration (MiC)” value with wild type E. coli [6] (plated after treatment, colonies counted after 24 hour incubation) stood at 25 mg. The “release of calcein from liposomes” value in data set [1] (350 pM, pH 7, FIG. 9) was “did induce the release of calcein”. In data set [1], the “maximal release of calcein upon treatment with detergent” value is given as “impaired the maximal release of calcein” and the “release of calcein from mitochondrial-like lipid vesicles” value is on record as “caused the release of calcein”.
`[NH2][Pt]([NH2])([Cl])[Cl]` [CDDP, cisplatin, reference compound]: the “changes in membrane symmetry” value with MDA-MB-231 cells [7] is “induced significant alterations in the membrane symmetry”. In addition, in the data set with MDA-MB-231 cells [4], the “effect of caspase inhibition with Z-VAD-FMK on cell death” value is listed as “inhibited by ZVAD-FMK”, the “cell death / loss of membrane integrity” value is “induced cell death” and the “effect of Bcl-2 overexpression on cell death” value was “impaired death”.
